Results: patent US8962598B2, “1,2-dihydro-4-hydroxy-2-oxo-quinoline-3-carboxanilides as AHR activators” (Immunahr AB, priority 2010, dated 2015)
Values after ≈ are worked out from the molar mass of the structure shown.

Tests used:
[1] = Solubility measurements in 0.2 M phosphate buffer pH 7.4; format: physicochemical; settings: 0.2 M phosphate buffer pH 7.4, ambient temperature, results from two dilutions; for solubility at 24 h: phosphate buffer, pH 7.4, aqueous buffer, thermodynamic from solid; for Solubility: 24 h
Method: Solubilities of a di- and a mono-acylated compound were measured in 0.2 M phosphate buffer pH 7.4 and compared with the solubility of the corresponding non-acylated compound.
Saturated compound solutions were prepared by mixing the compounds and the buffer solution at ambient temperature for 24 h followed by separation of the aqueous solution by centrifugation. Standard solutions of compounds (1.00 mg/mL) were prepared in DMSO.
The compound concentrations were measured by HPLC-MS/UV (Waters Alliance 2790 Separations Module/996 PDA detector/Micromass Quattro Micro) after appropriate dilutions of the aqueous saturated solutions ( 1/10 and 1/100) and the standard solutions ( 1/100, 1/200, and 1/1000), respectively, with mobile phase solvent.

[2] = tested on: EAE in female Dark Agouti (DA) rats; experiment: Experimental autoimmune encephalomyelitis (EAE) MS model in rats; format: in vivo, rat; settings: FIG. 1
Method: EAE was induced day 0 in female Dark Agouti (DA) rats with subcutaneous injection of spinal cord homogenate (SCH, approximately 2 mg, from naive rats) emulsified in incomplete Freunds adjuvant (IFA, total volume 100 ul per rat) at the base of the tail. Disease was evaluated daily from day 5 until the end of the experiment (day 22) according to following criteria: 0=healthy, 1=tail weakness, 2=tail paralysis, 3=tail paralysis and mild waddle, 4=tail paralysis and severe waddle, 5=tail paralysis and paralysis of one limb, 6=tail paralysis and paralysis of both hind limbs, 7=tetraparesis or paralysis of three limbs, and 8=premorbid or dead. Statistical analysis was performed using Prism 5 for Mac OS X (GraphPad Software, San Diego, Calif., USA).
Treatment was initiated day 0 after EAE induction with following treatment injections administered day 3, 6, and 9. The dose was administered as a 500 uL corn oil solution subcutaneously at the lower back. Treatment groups were mixed in all cages to avoid cage effects.
Control (vehicle, corn oil, Sigma Aldrich), 11 animals
Cyclosporin A (positive control, Sigma Aldrich), 10 mg/kg, first dissolved in 70% EtOH to 50 mg/mL, 11 animals
Compound 9 (N-acetyl-N-phenyl-4-acetoxy-5-chloro-1,2-dihydro-1-methyl-2-oxo-quinoline-3-carboxamide, Example 74), 1 mg/kg, 10 animals

human AhR = biological target: T1, human AhR (Homo sapiens, UniProt P35869); experiment: Activation of human AhR, GeneBLAzer CYP1A1-bla LS-180 beta-lactamase reporter-gene assay; format: cell-based; settings: assay reference compound (control activator)
T1 construct: host or cells: GeneBLAzer CYP1A1-bla LS-180 cell line
T1 sequence (P35869 11-848): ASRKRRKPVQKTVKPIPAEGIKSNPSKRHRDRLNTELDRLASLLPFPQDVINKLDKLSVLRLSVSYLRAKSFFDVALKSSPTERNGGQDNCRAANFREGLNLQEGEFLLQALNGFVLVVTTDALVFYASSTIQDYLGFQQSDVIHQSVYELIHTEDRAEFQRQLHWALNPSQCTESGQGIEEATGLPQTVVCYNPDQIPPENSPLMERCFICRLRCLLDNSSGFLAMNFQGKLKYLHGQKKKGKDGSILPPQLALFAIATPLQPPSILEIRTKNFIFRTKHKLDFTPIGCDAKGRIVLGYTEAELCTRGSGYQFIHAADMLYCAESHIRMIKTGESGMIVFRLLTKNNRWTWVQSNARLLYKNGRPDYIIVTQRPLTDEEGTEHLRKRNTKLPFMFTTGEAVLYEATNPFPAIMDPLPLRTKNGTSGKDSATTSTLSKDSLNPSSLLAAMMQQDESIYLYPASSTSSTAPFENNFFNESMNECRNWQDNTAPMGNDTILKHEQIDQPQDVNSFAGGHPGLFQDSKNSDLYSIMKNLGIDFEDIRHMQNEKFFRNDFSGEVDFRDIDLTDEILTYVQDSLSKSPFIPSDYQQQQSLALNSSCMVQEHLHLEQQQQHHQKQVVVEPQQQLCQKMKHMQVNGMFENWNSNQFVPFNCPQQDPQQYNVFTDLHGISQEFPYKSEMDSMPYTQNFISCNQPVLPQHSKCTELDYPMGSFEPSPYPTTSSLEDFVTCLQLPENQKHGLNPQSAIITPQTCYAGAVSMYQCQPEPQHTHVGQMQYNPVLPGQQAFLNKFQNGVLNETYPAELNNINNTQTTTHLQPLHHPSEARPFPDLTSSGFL
Method: Activation of the aryl hydrocarbon receptor can be measured in cell-based reporter-gene assays, which consist of cell lines containing the aryl hydrocarbon recptor and transfected with a reporter gene regulated by activated Ahr via an XRE (xenobiotic response element). AhR activation will thus result in an enhanced expression of the reporter protein (e.g. luciferase) which functional activity can be measured.
Activation of human AhR was measured in the GeneBLAzer® CYP1A1-bla LS-180 cell line (Invitrogen Corporation, Madison, www.invitrogen.com/drugdiscovery) using a beta-lactamase reporter gene (bla) combined with a FRET-enabled substrate sensitive to bla expression.
CYP1A1-bla LS-180 cells are harvested and suspended in Assay Media (OPTI-MEM, 0.5% dialyzed FBS, 0.1 mM NEAA, 1 mM Sodium Pyruvate, 100 U/mL/100 μg/mL Pen/Strep) to a concentration of 625,000 cells/mL. 32 μL of cell suspension (20,000 cells) is added to each well of a 384-well Poly-D-Lysine assay plate. Cells in assay media are incubated for 16-24 hours in the plate at 37° C./5% CO2 in a humidified incubator. 4 μL of a 10× serial dilution of beta-naphthoflavone (control activator starting concentration, 100,000 nM) or compounds are added to appropriate wells. 4 μL of Assay Media is added to all wells to bring the final assay volume to 40 μL. […] The plate is read on a fluorescence plate reader. […]

Cn1c(=O)c(C(=O)Nc2ccccc2)c(O)c2ccccc21 [Compound 3, N-phenyl-1,2-dihydro-4-hydroxy-1-methyl-2-oxo-quinoline-3-carboxamide, reference compound]
solubility at 24 h [1]: < 0.001 mg/mL

CC(=O)Oc1c(C(=O)N(C(C)=O)c2ccccc2)c(=O)n(C)c2cccc(Cl)c12 [Compound 9, N-acetyl-N-phenyl-4-acetoxy-5-chloro-1,2-dihydro-1-methyl-2-oxo-quinoline-3-carboxamide]
severity of the first disease period after discontinuation of treatment ([2]; 1 mg/kg s.c. day 0, 3, 6 and 9, versus vehicle control): lower than for vehicle control treated animals | EAE development (clinical score) ([2]; 1 mg/kg s.c. in corn oil day 0, 3, 6 and 9, DA rats): efficiently prevented EAE development

CC(=O)Oc1c(C(=O)N(C(C)=O)c2ccccc2)c(=O)n(C)c2ccccc12 [Compound 1, N-acetyl-N-phenyl-4-acetoxy-1,2-dihydro-1-methyl-2-oxo-quinoline-3-carboxamide]
Solubility [1]: 0.038 mg/mL (≈ 100 µM) | solubility at 24 h [1]: 0.021 mg/mL (≈ 55.5 µM)

O=c1cc(-c2ccccc2)oc2ccc3ccccc3c12 [beta-naphthoflavone]
EC50 (human AhR): 2.09 µM

CC(=O)Oc1c(C(=O)Nc2ccccc2)c(=O)n(C)c2ccccc12 [Compound 2, N-phenyl-4-acetoxy-1,2-dihydro-1-methyl-2-oxo-quinoline-3-carboxamide]
Solubility [1]: 0.221 mg/mL (≈ 657 µM) | solubility at 24 h [1]: 0.186 mg/mL (≈ 553 µM)
